Data published in PMC7619001, “Structural Basis of Bifunctional CTP/dCTP Synthase” (Journal of molecular biology, 2024).
One block for each molecule: values may come before it.

How the values were obtained:
CTP synthase (CTPS) [1] = target: T1, CTP synthase (CTPS) (Drosophila melanogaster, UniProt Q9VUL1); assay: cryo-EM structure ([…] Å), reaction intermediate; format: binding
T1 construct: full-length, C-terminal 6xHis-tag
T1 sequence (Q9VUL1 1-627): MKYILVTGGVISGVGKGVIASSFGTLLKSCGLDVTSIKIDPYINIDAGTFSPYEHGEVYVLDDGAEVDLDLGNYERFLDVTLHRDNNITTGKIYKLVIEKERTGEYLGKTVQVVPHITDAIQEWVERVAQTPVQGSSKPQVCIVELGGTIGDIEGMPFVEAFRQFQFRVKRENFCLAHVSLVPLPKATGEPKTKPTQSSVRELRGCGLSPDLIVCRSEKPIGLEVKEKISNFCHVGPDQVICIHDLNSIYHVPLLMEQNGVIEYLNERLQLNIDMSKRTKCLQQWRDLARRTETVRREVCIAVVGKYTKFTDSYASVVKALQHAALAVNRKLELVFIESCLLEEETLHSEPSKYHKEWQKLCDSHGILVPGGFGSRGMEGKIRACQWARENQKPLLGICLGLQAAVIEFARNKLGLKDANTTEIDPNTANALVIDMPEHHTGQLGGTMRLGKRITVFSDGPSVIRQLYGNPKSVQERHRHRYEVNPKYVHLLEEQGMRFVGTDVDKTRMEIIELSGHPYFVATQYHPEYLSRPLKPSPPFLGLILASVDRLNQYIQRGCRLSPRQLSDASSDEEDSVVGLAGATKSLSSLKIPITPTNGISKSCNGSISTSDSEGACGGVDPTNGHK

CTP synthase (CTPS) [2] = target: T1, CTP synthase (CTPS); assay: enzyme kinetics at […] nm, Hill fit (KA […]); format: biochemical
CTP synthase (CTPS) [3] = target: T1, CTP synthase (CTPS); assay: cryo-EM structure ([…] Å); format: binding
CTP synthase (CTPS) [4] = target: T1, CTP synthase (CTPS); assay: activation kinetics (KA = dissociation constant of the E·GTP complex); format: biochemical
CTP synthase (CTPS) [5] = target: T1, CTP synthase (CTPS); assay: enzyme kinetics at […] nm, Hill fit (KA […]); format: biochemical; remark: listed apart in the source
CTP synthase (CTPS) [6] = target: T1, CTP synthase (CTPS); assay: enzyme kinetics at […] nm, Hill fit (KA […]); format: biochemical; remark: listed apart in the source
CTP synthase (CTPS) [7] = target: T1, CTP synthase (CTPS); assay: enzyme activity abolished at […]; filament formation by negative-stain EM; format: biochemical
CTP synthase (CTPS) [8] = target: T1, CTP synthase (CTPS); assay: cryo-EM structure; activation kinetics (KA = dissociation constant of the enzyme-regulator complex); format: biochemical
Source text: cryo-EM structure; activation kinetics (KA = dissociation constant of the enzyme-regulator complex) on CTP synthase (CTPS) | we observed a clear electron density of dGTP

CTP synthase (CTPS) [9] = target: T1, CTP synthase (CTPS); assay: enzyme kinetics at […] nm, Hill fit (KA […]); format: biochemical; remark: listed apart in the source

Compound: O=c1nc(OP(=O)(O)O)ccn1[C@H]1C[C@H](O)[C@@H](COP(=O)(O)OP(=O)(O)OP(=O)(O)O)O1 [4Pi-dUTP]
- cryo-EM structure (2.7 Å), reaction intermediate (CTP synthase (CTPS) [1]): our electron density map shows that dUTP has been catalyzed by CTPS to 4Pi-dUTP and stabilized through various interactions

Compound: Nc1ncnc2c1ncn2[C@@H]1O[C@H](COP(=O)(O)OP(=O)(O)OP(=O)(O)O)[C@@H](O)[C@H]1O [ATP]
- Kd (CTP synthase (CTPS) [2]): 60 µM

Compound: [N-]=[N+]=CC(=O)CC[C@H](N)C(=O)O [DON, 6-diazo-L-noreleucine]
- cryo-EM structure (2.7 Å) (CTP synthase (CTPS) [3]): The electron density of the covalent inhibitor DON was observed in the binding pocket of the GAT domain

Compound: Nc1ccn([C@H]2C[C@H](O)[C@@H](COP(=O)(O)OP(=O)(O)OP(=O)(O)O)O2)c(=O)n1 [dCTP]
- enzyme activity abolished at 1 mM; filament formation by negative-stain EM (CTP synthase (CTPS) [7]): This indicates that both CTP and dCTP have strong inhibition effects on CTPS activity.

Compound: O=c1ccn([C@H]2C[C@H](O)[C@@H](COP(=O)(O)OP(=O)(O)OP(=O)(O)O)O2)c(=O)[nH]1 [dUTP]
- Kd (CTP synthase (CTPS) [9]): 280 ± 70 µM

The remaining lines, values ahead:

- Kd (CTP synthase (CTPS) [4]): 51.2 µM
Compound: Nc1nc2c(ncn2[C@@H]2O[C@H](COP(=O)(O)OP(=O)(O)OP(=O)(O)O)[C@@H](O)[C@H]2O)c(=O)[nH]1 [GTP]

- Kd (CTP synthase (CTPS) [5]): 50 ± 40 µM
Compound: O=c1ccn([C@@H]2O[C@H](COP(=O)(O)OP(=O)(O)OP(=O)(O)O)[C@@H](O)[C@H]2O)c(=O)[nH]1 [UTP]

- cryo-EM structure (2.7 Å) (CTP synthase (CTPS) [3]): dATP has been converted to dADP by CTPS
Compound: Nc1ncnc2c1ncn2[C@H]1C[C@H](O)[C@@H](COP(=O)(O)OP(=O)(O)O)O1 [dADP]

- Kd (CTP synthase (CTPS) [6]): 160 ± 80 µM
Compound: Nc1ncnc2c1ncn2[C@H]1C[C@H](O)[C@@H](COP(=O)(O)OP(=O)(O)OP(=O)(O)O)O1 [dATP]

- Kd (CTP synthase (CTPS) [8]): 523 ± 312 µM
Compound: Nc1nc2c(ncn2[C@H]2C[C@H](O)[C@@H](COP(=O)(O)OP(=O)(O)OP(=O)(O)O)O2)c(=O)[nH]1 [dGTP]
